Data: patent US7569586B2, “Compounds having β2 adrenergic receptor agonist and muscarinic receptor antagonist activity” (Theravance, Inc., priority 2004, dated 2009)

Columns and labels:
[1] = target: T1, human β2 adrenergic receptor (Homo sapiens, UniProt P07550); test: Radioligand binding assay for human β2 adrenergic receptor (Assay Test Procedure A); design: expressed in transfected cells; host or cells: CHO-K1 cells; settings: CHO cell membranes, [3H]-dihydroalprenolol displacement
Method: Chinese hamster ovarian (CHO) cell lines stably expressing cloned human β1, β2 or β3 adrenergic receptors, respectively, were grown to near confluency in Hams F-12 media with 10% FBS in the presence of 500 μg/mL Geneticin. The cell monolayer was lifted with 2 mM EDTA in PBS. Cells were pelleted by centrifugation at 1,000 rpm, and cell pellets were either stored frozen at −80° C. or membranes were prepared immediately for use. For preparation of β1 and β2 receptor expressing membranes, cell pellets were re-suspended in lysis buffer (10 mM HEPES/HCl, 10 mM EDTA, pH 7.4 at 4° C.) and homogenized using a tight-fitting Dounce glass homogenizer (30 strokes) on ice. […] The protein concentration of the membrane suspension was determined by the methods described in Lowry et al., 1951, Journal of Biological Chemistry, 193, 265; and Bradford, Analytical Biochemistry, 1976, 72, 248-54. […]
Binding assays were performed in 96-well microtiter plates in a total assay volume of 100 μL with 10-15 μg of membrane protein containing the human β1, β2 or β3 adrenergic receptors in assay buffer (75 mM Tris/HCl pH 7.4 at 25° C., 12.5 mM MgCl2, 1 mM EDTA, 0.2% BSA). […] Non-specific binding was determined in the presence of 10 μM propranolol. […] Filter plates were washed three times with filtration buffer (75 mM Tris/HCl pH 7.4 at 4° C., 12.5 mM MgCl2, 1 mM EDTA) to remove unbound radioactivity. […]

[2] = target: T1, human β2 adrenergic receptor; test: Whole-cell cAMP Flashplate assay with lung epithelial cell line BEAS-2B endogenously expressing human β2 adrenergic receptor (Assay Test Procedure E); assay type: cell-based; settings: BEAS-2B cells
Method: For the determination of agonist potencies and efficacies (intrinsic activities) in a cell line expressing endogenous levels of the β2 adrenergic receptor, a human lung epithelial cell line (BEAS-2B) was used (ATCC CRL-9609, American Type Culture Collection, Manassas, Va.) (January B, et al., British Journal of Pharmacology, 1998, 123, 4, 701-11). Cells were grown to 75-90% confluency in complete, serum-free medium (LHC-9 MEDIUM containing Epinephrine and Retinoic Acid, cat # 181-500, Biosource International, Camarillo, Calif.). The day before the assay, medium was switched to LHC-8 (no epinephrine or retinoic acid, cat # 141-500, Biosource International, Camarillo, Calif.). cAMP assays were performed in a radioimmunoassay format using the Flashplate Adenylyl Cyclase Activation Assay System with [^125I]-cAMP (NEN SMP004, PerkinElmer Life Sciences Inc., Boston, Mass.), according to the manufacturers instructions. On the day of the assay, cells were rinsed with PBS, lifted by scraping with 5 mM EDTA in PBS, and counted. Cells were pelleted by centrifugation at 1,000 rpm and re-suspended in stimulation buffer pre-warmed to 37° C. at a final concentration of 600,000 cells/mL. Cells were used at a final concentration of 100,000 to 120,000 cells/well in this assay. […] Plates were sealed, incubated over night at 4° C. and counted the next morning in a Topcount scintillation counter (Packard BioScience Co., Meriden, Conn.). The amount of cAMP produced per mL of reaction was calculated based on the counts observed for samples and cAMP standards, as described in the manufacturer's user manual. Data were analyzed by nonlinear regression analysis with the GraphPad Prism Software package (GraphPad Software, Inc., San Diego, Calif.) using the 4-parameter model for sigmoidal dose-response.
if desired, test compound efficacity (% Eff) was calculated from the ratio of the observed Emax (TOP of the fitted curve) and the maximal response obtained for isoproterenol dose response curve and was expressed as % Eff relative to isoproterenol.

hM3 muscarinic receptor = target: T2, hM3 muscarinic receptor (Homo sapiens, UniProt P20309); test: Radioligand binding assay for muscarinic receptors (Assay Test Procedure B); settings: CHO cell membranes, [3H]-NMS displacement; read-out: Ki value for the M3 muscarinic receptor
T2 construct: expressed in transfected cells; host or cells: CHO cells (membranes)
Method: CHO cell lines stably expressing cloned human hM1, hM2, hM3 and hM4 muscarinic receptor subtypes, respectively, were grown to near confluency in HAM's F-12 media supplemented with 10% FBS and 250 μg/mL Geneticin. The cells were grown in a 5% CO2, 37° C. incubator and lifted with 2 mM EDTA in dPBS. Cells were collected by 5 minute centrifugation at 650×g, and cell pellets were either stored frozen at −80° C. or membranes were prepared immediately for use. For membrane preparation, cell pellets were resuspended in lysis buffer and homogenized with a Polytron PT-2100 tissue disrupter (Kinematica AG; 20 seconds×2 bursts). Crude membranes were centrifuged at 40,000×g for 15 minutes at 4° C. The membrane pellet was then resuspended with re-suspension buffer and homogenized again with the Polytron tissue disrupter. The protein concentration of the membrane suspension was determined by the method described in Lowry et al., 1951, […], 193, 265. All membranes were stored frozen in aliquots at −80° C. or used immediately. Aliquots of prepared hM5 receptor membranes were purchased directly from Perkin Elmer and stored at −80° C. until use.
Radioligand binding assays for cloned human muscarinic receptors were performed in 96-well microtiter plates in a total assay volume of 100 μL. […] Filter plates were rinsed three times with wash buffer (10 mM HEPES) to remove unbound radioactivity. […] The plates were then counted in a PerkinElmer Topcount liquid scintillation counter (PerkinElmer Inc., Wellesley, Mass.). Binding data were analyzed by nonlinear regression analysis with the GraphPad Prism Software package (GraphPad Software, Inc., San Diego, Calif.) using the one-site competition model. Ki values for test compounds were calculated from observed IC50 values and the KD value of the radioligand using the Cheng-Prusoff equation (Cheng Y; Prusoff W H. (1973) Biochemical Pharmacology, 22(23):3099-108). […]

[3] = target: T1, human β2 adrenergic receptor; test: Whole-cell cAMP Flashplate assay in CHO cell lines heterologously expressing human β2 adrenergic receptor (Assay Test Procedure C); assay type: cell-based; design: expressed in transfected cells; host or cells: CHO-K1 cells; settings: CHO-K1 cells
Method: cAMP assays were performed in a radioimmunoassay format using the Flashplate Adenylyl Cyclase Activation Assay System with [^125I]-cAMP (NEN SMP004, PerkinElmer Life Sciences Inc., Boston, Mass.), according to the manufacturers instructions. For the determination of P receptor agonist potency (EC50), CHO-K1 cell lines stably expressing cloned human β1, β2 or β3 adrenergic receptors were grown to near confluency in HAM's F-12 media supplemented with 10% FBS and Geneticin (250 μg/mL). Cells were rinsed with PBS and detached in dPBS (Dulbecco's Phosphate Buffered Saline, without CaCl2 and MgCl2) containing 2 mM EDTA or Trypsin-EDTA solution (0.05% trypsin/0.53 mM EDTA). After counting cells in Coulter cell counter, cells were pelleted by centrifugation at 1,000 rpm and re-suspended in stimulation buffer containing IBMX (PerkinElmer Kit) pre-warmed to room temperature to a concentration of 1.6×10^6 to 2.8×10^6 cells/mL. About 60,000 to 80,000 cells per well were used in this assay. Test compounds (10 mM in DMSO) were diluted into PBS containing 0.1% BSA in Beckman Biomek-2000 and tested at 11 different concentrations ranging from 100 μM to 1 pM. Reactions were incubated for 10 min at 37° C. and stopped by adding 100 μL of cold detection buffer containing [^125I]-cAMP (NEN SMP004, PerkinElmer Life Sciences, Boston, Mass.). The amount of cAMP produced (pmol/well) was calculated based on the counts observed for the samples and cAMP standards as described in the manufacturer's user manual. Data were analyzed by nonlinear regression analysis with the GraphPad Prism Software package (GraphPad Software, Inc., San Diego, Calif.) with the sigmoidal equation. The Cheng-Prusoff equation (Cheng Y, and Prusoff W H., Biochemical Pharmacology, 1973, 22, 23, 3099-108) was used to calculate the […].

T2 sequence (P20309 whole entry): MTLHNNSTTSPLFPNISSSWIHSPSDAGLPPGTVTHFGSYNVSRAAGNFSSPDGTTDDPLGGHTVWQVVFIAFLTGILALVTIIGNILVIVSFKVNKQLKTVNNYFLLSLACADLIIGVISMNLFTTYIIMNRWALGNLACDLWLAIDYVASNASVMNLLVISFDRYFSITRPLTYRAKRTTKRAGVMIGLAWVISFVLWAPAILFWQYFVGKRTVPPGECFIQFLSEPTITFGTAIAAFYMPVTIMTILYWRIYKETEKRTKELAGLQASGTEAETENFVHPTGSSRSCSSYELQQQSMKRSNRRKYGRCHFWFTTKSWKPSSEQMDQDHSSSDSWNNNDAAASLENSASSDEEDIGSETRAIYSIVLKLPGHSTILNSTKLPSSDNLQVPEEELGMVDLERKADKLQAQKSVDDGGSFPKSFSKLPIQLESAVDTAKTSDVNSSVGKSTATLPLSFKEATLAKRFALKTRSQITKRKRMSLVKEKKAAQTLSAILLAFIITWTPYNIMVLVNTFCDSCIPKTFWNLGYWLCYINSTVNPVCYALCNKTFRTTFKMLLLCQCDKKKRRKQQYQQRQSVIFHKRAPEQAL
T1 sequence (P07550 whole entry): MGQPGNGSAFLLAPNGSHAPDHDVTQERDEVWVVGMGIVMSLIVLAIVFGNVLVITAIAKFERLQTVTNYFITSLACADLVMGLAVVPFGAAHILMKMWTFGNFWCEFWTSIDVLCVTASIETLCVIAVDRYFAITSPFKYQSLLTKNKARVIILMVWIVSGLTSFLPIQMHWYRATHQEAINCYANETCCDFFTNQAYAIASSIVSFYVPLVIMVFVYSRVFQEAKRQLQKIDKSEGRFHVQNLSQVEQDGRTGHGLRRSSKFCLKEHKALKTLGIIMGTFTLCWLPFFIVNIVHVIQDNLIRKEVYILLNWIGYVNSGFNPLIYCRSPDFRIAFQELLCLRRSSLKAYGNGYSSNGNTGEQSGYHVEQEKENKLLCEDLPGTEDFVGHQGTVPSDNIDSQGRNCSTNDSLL

Ki [1] [nM] | EC50 [2] [nM] | Ki (hM3 muscarinic receptor) [nM] | EC50 [3] [nM] | SMILES
< 10 | < 20 | < 10 | < 10 | O=C(Nc1ccccc1-c1cccs1)OC1CCN(CCCCCCCCCNC[C@H](O)c2ccc(O)c3[nH]c(=O)ccc23)CC1 [Example 1, (2-Thien-2-ylphenyl)carbamic Acid 1-{9-[(R)-2-Hydroxy-2-(8-hydroxy-2-oxo-1,2-dihydroquinolin-5-yl)ethylamino]nonyl}piperidin-4-yl Ester]
< 10 | < 20 | < 10 | < 10 | O=C(Nc1ccccc1-c1ccsc1)OC1CCN(CCCCCCCCCNC[C@H](O)c2ccc(O)c3[nH]c(=O)ccc23)CC1 [Example 2, (2-Thien-3-ylphenyl)carbamic Acid 1-{9-[(R)-2-Hydroxy-2-(8-hydroxy-2-oxo-1,2-dihydroquinolin-5-yl)ethylamino]nonyl}piperidin-4-yl Ester]
– | < 20 | < 150 | < 10 | O=C(Nc1c(F)cc(F)cc1-c1cccnc1)OC1CCN(CCCCCCCCCNC[C@H](O)c2ccc(O)c3[nH]c(=O)ccc23)CC1 [Example 3, (2,4-Difluoro-6-pyridin-3-ylphenyl)carbamic Acid 1-{9-[(R)-2-Hydroxy-2-(8-hydroxy-2-oxo-1,2-dihydroquinolin-5-yl)ethylamino]nonyl}piperidin-4-yl Ester]
